From US5138069A (E. I. Du Pont de Nemours and Company, priority 1988, dated 1992)
Where two headings read alike, the source gives them in different places.

Assays:
Renal Hypertensive Rats = assay: Antihypertensive effects in renal hypertensive rats; type: in vivo; conditions: Rattus norvegicus; for minimal effective dose at 100 mg/kg / minimal effective dose at 10 mg/kg: Table 25; for minimal effective dose at 100 mg/kg: 100 mg/kg or less; for minimal effective dose at 10 mg/kg: 10 mg/kg or less
Protocol: This procedure increases blood pressure by increasing renin production with consequent elevation of AII levels. Compounds are administered orally at 100 mg/kg and/or intravenously via a cannula in the jugular vein at 10 mg/kg. Arterial blood pressure is continuously measured directly through a carotid artery cannula and recorded using a pressure transducer and a polygraph. Blood pressure levels after treatment are compared to pretreatment levels to determine the antihypertensive effects of the compounds (See Table 25).
(§1) Compounds listed in Table 26 were tested in the same manner as described for Table 25, except that in the test for antihypertensive effects in renal hypertensive rats, the compounds were administered orally at 30 mg/kg and intravenously at 3 mg/kg.

AII receptor = assay: Angiotensin II receptor binding (displacement of 3H-AII); conditions: read-out: Angiotensin II Receptor Binding IC50, rat adrenal cortical microsomes, 2 nM 3H-AII, 1 hour, room temperature
Protocol: The assay was carried out according to the method described by [Glossmann et al., J. Biol. Chem., 249, 825 (1974)], but with some modifications. The reaction mixture contained rat adrenal cortical microsomes (source of AII receptor) in Tris buffer and 2 nM of ^3 H-AII with or without potential AII antagonist. This mixture was incubated for 1 hour at room temperature and the reaction was subsequently terminated by rapid filtration and rinsing through glass micro-fibre filter. Receptor-bound ^3 H-AII trapped in filter was quantitated by scintillation counting.
as §1

[1] = Table 25, tested as sodium salt
[2] = tested as sodium salt, intravenous

SMILES	minimal effective dose at 100 mg/kg (Renal Hypertensive Rats; tested as sodium salt, oral) [mg/kg]	IC50 (AII receptor; [1]) [nM]	minimal effective dose at 10 mg/kg (Renal Hypertensive Rats; [2]) [mg/kg]	minimal effective dose at 10 mg/kg (Renal Hypertensive Rats; intravenous) [mg/kg]	minimal effective dose at 100 mg/kg (Renal Hypertensive Rats; oral) [mg/kg]	IC50 (AII receptor; Table 25) [nM]	further results
CCCCc1nc(Cl)c(Cc2nnn[nH]2)n1Cc1cccc(-c2nnn[nH]2)c1 [Example 26, 2-Butyl-4-chloro-5-[(1H-tetrazol-5-yl)methyl]-1-[3-(1H-tetrazol-5-yl)benzyl]imidazole]	> 100	3800					
CCCCc1nc(Cl)c(Cc2nnn[nH]2)n1Cc1ccc(-c2nnn[nH]2)cc1 [Example 27, 2-Butyl-4-chloro-5-[(1H-tetrazol-5-yl)methyl]-1-[4-(1H-tetrazol-5-yl)benzyl]imidazole]	< 100	1200	< 10				
CCCCc1nc(Cl)c(CC(=O)OC)n1Cc1ccc(N2C(=O)c3ccccc3C2=O)cc1 [Example 29, Methyl 2-butyl-4-chloro-1-(4-N-phthalimidobenzyl)imidazole-5-acetate]				< 10	> 100	3100	
CCCCc1nc(Cl)c(CC(=O)OC)n1Cc1ccc(NC(=O)c2ccccc2NS(=O)(=O)C(F)(F)F)cc1 [Example 30, Methyl 2-butyl-4-chloro-1-[4-((N-trifluoromethanesulfonyl)anthranilamido)benzyl]-imidazole-5-acetate]	< 100	390	< 10				
CCCCc1nc(Cl)c(CC(=O)OC)n1Cc1ccc(NC(=O)c2cc(I)ccc2NS(=O)(=O)C(F)(F)F)cc1 [Example 35]	< 100	3400	< 10				
CCCCc1nc(Cl)c(CC(=O)OC)n1Cc1ccc(NC(=O)c2cccc(C)c2NS(=O)(=O)C(F)(F)F)cc1 [Example 36]	> 100	190	< 10				
CCCCc1nc(Cl)c(CC(=O)OC)n1Cc1ccc(NC(=O)c2ccccc2NS(C)(=O)=O)cc1 [Example 51]				> 100	> 100	2300	
CCCCc1nc(Cl)c(CC(=O)OC)n1Cc1ccc(NC(=O)c2cc(C)ccc2NS(=O)(=O)C(F)(F)F)cc1 [Example 53A]				> 100	> 100	810	
CCCCc1nc(Cl)c(CO)n1Cc1ccc(NC(=O)c2ccccc2NS(=O)(=O)C(F)(F)F)cc1 [Example 53B]				< 10		360	
CCCCc1ncc(CO)n1Cc1ccc(NC(=O)c2ccccc2NS(=O)(=O)C(F)(F)F)cc1 [Example 53C]				< 10		210	
CCCCCCCc1nc(Cl)c(CO)n1Cc1ccc(NC(=O)c2ccccc2NS(=O)(=O)C(F)(F)F)cc1 [Example 54, 4-Chloro-2-heptyl-5-hydroxymethyl-1-[4-((N-trifluoromethanesulfonyl)-anthranilamido)benzyl]imidazole]				< 10		7200	
COCCc1nc(Cl)c(CO)n1Cc1ccc(NC(=O)c2ccccc2C(=O)O)cc1 [Example 55, 1-[4-(2-Carboxybenzamido)-benzyl]-4-chloro-5-hydroxymethyl-2-(2-methoxyethyl)imidazole]				< 10	> 100	930	
CCc1nccn1Cc1ccc(NC(=O)c2ccccc2NS(=O)(=O)C(F)(F)F)cc1 [Example 57]				< 10	> 100	4900	
CC(C)c1nccn1Cc1ccc(NC(=O)c2ccccc2NS(=O)(=O)C(F)(F)F)cc1 [Example 58]				< 10	> 100	8300	
CCCCc1nccn1Cc1ccc(NC(=O)c2ccccc2NS(=O)(=O)C(F)(F)F)cc1 [Example 59]				> 100	> 100	3000	
CCCc1nccn1Cc1ccc(NC(=O)c2ccccc2C(=O)O)cc1 [Example 63]	> 100	3700					
CCCCc1nccn1Cc1ccc(NC(=O)c2ccccc2C(=O)O)cc1 [Example 64]				< 10	> 100	620	
CCCCCc1nccn1Cc1ccc(NC(=O)c2ccccc2C(=O)O)cc1 [Example 65]				< 10	> 100	240	

SMILES	minimal effective dose at 100 mg/kg (Renal Hypertensive Rats; tested as sodium salt, oral) [mg/kg]	IC50 (AII receptor; [1]) [nM]	minimal effective dose at 10 mg/kg (Renal Hypertensive Rats; [2]) [mg/kg]	minimal effective dose at 10 mg/kg (Renal Hypertensive Rats; intravenous) [mg/kg]	minimal effective dose at 100 mg/kg (Renal Hypertensive Rats; oral) [mg/kg]	IC50 (AII receptor; Table 25) [nM]	further results
CCCCCCc1nccn1Cc1ccc(NC(=O)c2ccccc2C(=O)O)cc1 [Example 66]				< 10	> 100	350	
CCCCCCCc1nccn1Cc1ccc(NC(=O)c2ccccc2C(=O)O)cc1 [Example 67]				< 10	> 100	1100	
COc1ccc(Cc2nccn2Cc2ccc(NC(=O)c3ccccc3C(=O)O)cc2)cc1 [Example 70]				< 10	> 100	2500	
CSc1ncc(CO)n1Cc1ccc(NC(=O)c2ccccc2C(=O)O)cc1 [Example 72, 1-[4-(2-Carboxybenzamido)-benzyl]-5-hydroxymethyl-2-(methylthio)-imidazole]				< 10	> 100	6500	
CCCCc1nc(C#N)c(C#N)n1Cc1ccc(NC(=O)c2ccccc2NS(=O)(=O)C(F)(F)F)cc1 [Example 75, 2-Butyl-4,5-dicyano-1-[4-((N-trifluoromethanesulfonyl)anthranilamido)-benzyl]imidazole]	< 100	7600	< 10				
CCCCc1nc(Cl)c(CC(=O)OC)n1Cc1ccc(N(Cc2ccccc2)C(=O)c2ccccc2NS(=O)(=O)C(F)(F)F)cc1 [Example 76, Methyl 2-butyl-1-[4-(N-benzyl-N-(2-(trifluoromethanesulfonamido)benzoyl)-amino)benzyl]-4-chloroimidazole-5-acetate]	> 100	2700	< 10				
CCCCc1nc(Cl)c(COC)n1Cc1ccc(N(C)C(=O)c2c(Cl)ccc(Cl)c2C(=O)O)cc1 [Example 77, 2-n-Butyl-4-chloro-5-methoxymethyl-1-[4-(N-methyl-2-carboxy-3,6-dichlorobenzamid)benzyl]imidazole]	> 100	5700	> 100				
CCCCc1nc(Cl)c(COC)n1Cc1ccc(C(=O)Nc2ccccc2C(=O)O)cc1 [Example 78]	< 100	8000	< 10				
CCCCc1nc(Cl)c(COC)n1Cc1ccc(C(=O)Nc2nnn[nH]2)cc1 [Example 79]	> 100	500	< 10				
CCCCc1nc(Cl)c(COC)n1Cc1ccc(C(=O)Nc2cccc(C)c2C(=O)O)cc1 [Example 80]	< 100	500	< 10				
CCCCc1nc(Cl)c(COC)n1Cc1ccc(C(=O)Nc2ccccc2-c2nnn[nH]2)cc1 [Example 81]	> 100	570	> 100				
CCCCc1nc(Cl)c(CO)n1Cc1ccc(-c2cccc(C(=O)OCOC(=O)C(C)(C)C)c2)cc1 [Example 88, 1-[(3'-Trimethylacetoxymethoxycarbonylbiphenyl-4-yl)methyl]-2-butyl-4-chloro-5-hydroxymethylimidazole]					< 100	1300	
CCCCc1nc(Cl)c(COC)n1Cc1ccc(-c2ccccc2-c2nnn[nH]2)cc1 [Example 90]	< 100	20	< 10				
CCCCc1nc([N+](=O)[O-])c(CO)n1Cc1ccc(-c2ccccc2C(=O)O)cc1 [Example 91, 1-[(2'-carboxybiphenyl-4-yl)-methyl]-2-butyl-5-hydroxymethyl-4-nitroimidazole]				< 10	> 100	260	
CCCCc1nc(C(F)(F)F)c(CO)n1Cc1ccc(-c2ccccc2C(=O)O)cc1 [Example 92, 1-[(2'-carboxybiphenyl-4-yl)-methyl]-2-butyl-5-hydroxymethyl-4-trifluoromethylimidazole]				< 10		62	
CCCCc1nc(C(F)(F)C(F)(F)F)c(CO)n1Cc1ccc(-c2ccccc2C(=O)O)cc1 [Example 92A, 1-[(2'-carboxybiphenyl-4-yl)methyl]-2-butyl-5-hydroxymethyl-4-pentafluoroethylimidazole]							minimal effective dose at 3 mg/kg (Renal Hypertensive Rats; Table 26, intravenous, 3 mg/kg): < 3 mg/kg; minimal effective dose at 30 mg/kg (Renal Hypertensive Rats; Table 26, oral, 30 mg/kg): < 30 mg/kg; IC50 (AII receptor; Table 26): 40 nM
CCCCc1nc(Cl)c(CO)n1Cc1ccc(-c2ccccc2C(=O)O)cc1 [Example 94, 2-butyl-1-[(2'-carboxybiphenyl-4-yl)methyl]-4-chloro-5-hydroxymethylimidazole]				< 10	< 100	280	
